Test results from PubChem BioAssay AID396.

Target: 14-3-3 protein beta/alpha (Homo sapiens) (UniProt P31946)
Assay: 14-3-3 beta ligand binding via Tm shift – biophysical, DSF, SYPRO orange, recombinant human protein (AID 396)
Conditions: Recombinant YWHAB, DSF SYPRO orange thermal shift; at 10 µM; protein 2.3 µM; buffer 10 mM HEPES; pH 7.5; NaCl 150 mM; stronger effect = higher value

Chain of 14-3-3 protein beta/alpha (Homo sapiens) (P31946 whole entry, looked up): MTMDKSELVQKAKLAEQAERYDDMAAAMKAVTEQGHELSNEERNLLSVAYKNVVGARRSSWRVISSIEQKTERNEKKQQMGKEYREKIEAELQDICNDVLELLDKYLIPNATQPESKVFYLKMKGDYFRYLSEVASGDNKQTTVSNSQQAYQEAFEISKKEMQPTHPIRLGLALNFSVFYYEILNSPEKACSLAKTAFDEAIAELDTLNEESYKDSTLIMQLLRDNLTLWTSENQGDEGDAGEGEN

Tm shift: 3.13 Celsius
SMILES: O=c1c(O)c(-c2ccc(O)c(O)c2)oc2cc(O)cc(O)c12
